Test systems include SF-539 CNS; NCI-H226 lung; CAKI-1 renal; K-562 leukemia; DU-145 prostate; MCF7 breast; SK-MEL-5 melanoma; PC-3 prostate; RPMI-8226 leukemia.
What all share (assay): NCI tumour cell line growth inhibition, 48 h

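1) Cells in 96-well plates. 2) Compound, 48 h, 5 concentrations. 3) Linear interpolation between surrounding doses. 4) Unreached endpoint = highest concentration. The concentration for 50% growth inhibition is given as GI50. Definition used: TGI = concentration required for complete inhibition of growth.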 Some results are limits rather than exact numbers.

Regarding `CC(C)(C)C1=C(Br)C(OC(=O)C(F)(F)F)(C(C)(C)C)OP1(=O)c1ccccc1` (stereo not drawn), the TGI was above 100 µM in the test with SF-539 CNS; above 100 µM in the test with NCI-H226 lung; 4.97 µM with CAKI-1 renal; above 100 µM in the test with K-562 leukemia; above 100 µM in the test on DU-145 prostate; above 100 µM in the test with MCF7 breast. Moreover, the TGI was above 100 µM in the test on SK-MEL-5 melanoma and 93.5 µM in the test on PC-3 prostate.
`COc1ccc2c(c1)CCC/C2=N\NS(=O)(=O)c1c(C)cc(C)cc1C`: the TGI in the test on SF-539 CNS is 41.5 µM; with NCI-H226 lung, 59.8 µM; with CAKI-1 renal, above 100 µM; with K-562 leukemia, 41.6 µM; in the test with DU-145 prostate, 68.1 µM; in the test with MCF7 breast, above 100 µM. The TGI in the test with SK-MEL-5 melanoma is 33.4 µM; with PC-3 prostate, above 100 µM.
Regarding `CCn1c2ccccc2c2cc(Nc3cc(C)[nH]c(=O)n3)ccc21`, the TGI with SF-539 CNS, with CAKI-1 renal, in the test on K-562 leukemia, with DU-145 prostate, with MCF7 breast and with PC-3 prostate was above 100 µM in each case.
Turning to `C(#Cc1ccccc1)SC1=C(c2ccccc2)S/C(=C(\SC#Cc2ccccc2)c2ccccc2)S1`, the TGI in the test on SF-539 CNS, with NCI-H226 lung, in the test with CAKI-1 renal, with K-562 leukemia, in the test with DU-145 prostate and with MCF7 breast was above 100 µM each time. Also, the TGI in the test with SK-MEL-5 melanoma and in the test on PC-3 prostate was above 100 µM throughout.
For the compound `Cc1c(O)c(=O)ccn1CCc1ccc(O)cc1`, the TGI with SF-539 CNS is 62.5 µM; in the test on CAKI-1 renal, 32 µM; with K-562 leukemia it was above 100 µM; in the test on DU-145 prostate it was above 100 µM; in the test with MCF7 breast it was 58.2 µM; with SK-MEL-5 melanoma it was 51.7 µM. Also, the figures for the TGI with PC-3 prostate and in the test with RPMI-8226 leukemia were above 100 µM and 45.4 µM, respectively.
Consider `CC(=O)OCC1OC(n2c(-c3ccccc3)c(N=Nc3ccc(C)cc3)c(C)c(C#N)c2=S)C(OC(C)=O)C(OC(C)=O)C1OC(C)=O` (stereo not drawn), for which the TGI in the test on CAKI-1 renal is 64.5 µM; in the test on K-562 leukemia, above 100 µM; with DU-145 prostate, above 100 µM; in the test on MCF7 breast it was above 100 µM; with RPMI-8226 leukemia it was above 100 µM.
`O=C1N(c2ccccc2)C(=S)/C(=C/c2ccc(Cl)cc2)N1c1ccc(Cl)cc1`: the TGI was 41.2 µM with SF-539 CNS; above 100 µM in the test with CAKI-1 renal; above 100 µM in the test with K-562 leukemia; above 100 µM with DU-145 prostate; above 100 µM in the test on MCF7 breast; above 100 µM in the test with SK-MEL-5 melanoma. Also, the TGI in the test with PC-3 prostate was above 100 µM; in the test on RPMI-8226 leukemia it was 52.5 µM.
As to `CN1CCC2(CC1)C(=NC1CCCCC1)NC(=O)N2c1ccccc1`, the TGI with NCI-H226 lung, in the test with DU-145 prostate, with MCF7 breast, with SK-MEL-5 melanoma and in the test with RPMI-8226 leukemia was above 100 µM each time.
On to `O=c1[nH]nc(-c2ccccc2)n1-n1cnnc1`, for which the TGI with SF-539 CNS, in the test on NCI-H226 lung, with CAKI-1 renal, in the test with K-562 leukemia, with MCF7 breast and in the test with SK-MEL-5 melanoma was above 100 µM each time. The TGI in the test with PC-3 prostate and in the test with RPMI-8226 leukemia was above 100 µM each time.
Take `COc1cc(/C=N/NC2=NCCN2)ccc1O`: the TGI in the test with SF-539 CNS, in the test on NCI-H226 lung, with K-562 leukemia, in the test on DU-145 prostate, in the test with MCF7 breast and with SK-MEL-5 melanoma was above 100 µM each time. The TGI in the test with PC-3 prostate and in the test with RPMI-8226 leukemia was above 100 µM throughout.
In the case of `CCNC(=S)N/N=C(\C)c1cccc(C)n1`, the TGI is 45.1 µM in the test on SF-539 CNS; 47.9 µM in the test with NCI-H226 lung; above 100 µM in the test on K-562 leukemia; 73.1 µM in the test on DU-145 prostate; above 100 µM in the test with MCF7 breast; 23.8 µM with SK-MEL-5 melanoma. Besides, in the test with PC-3 prostate, the TGI was above 100 µM.
As to `c1cc2c(cc1C1=NCCN1)c1cc(C3=NCCN3)ccc1n2CC1CCCCC1`, the TGI was 19.2 µM with SF-539 CNS; 48.7 µM in the test on NCI-H226 lung; above 100 µM with CAKI-1 renal; above 100 µM with K-562 leukemia; 77.1 µM in the test with DU-145 prostate; 36.2 µM in the test with SK-MEL-5 melanoma. The TGI in the test with PC-3 prostate and with RPMI-8226 leukemia was above 100 µM throughout.
With `O=C(O)c1ccc(N/C(=C(/C(Cl)=C(Cl)Cl)[N+](=O)[O-])n2nnc3ccccc32)cc1`, the TGI in the test with SF-539 CNS, in the test on NCI-H226 lung, with CAKI-1 renal, with K-562 leukemia, in the test on MCF7 breast and in the test with PC-3 prostate was above 100 µM in each case. Besides, the TGI in the test on RPMI-8226 leukemia was above 100 µM.
Regarding `C=C(C)[C@@H]1CC[C@]2(C(=O)NC(C)=O)CC[C@]3(C)[C@H](CC[C@@H]4[C@@]5(C)CCCNC(C)(C)[C@@H]5CC[C@]43C)[C@@H]12`, the GI50 in the test on SF-539 CNS was 1.51 µM; in the test with CAKI-1 renal, 1.64 µM; with K-562 leukemia, 1.12 µM; in the test on DU-145 prostate it was 1.57 µM; in the test on MCF7 breast it was 1.41 µM; in the test on SK-MEL-5 melanoma it was 1.76 µM. Also, the GI50 with PC-3 prostate was 1.59 µM; in the test on RPMI-8226 leukemia, 1.18 µM. The TGI in the test with SF-539 CNS is 2.84 µM; in the test with CAKI-1 renal, 3.1 µM; in the test on K-562 leukemia, 3.18 µM; with DU-145 prostate it was 2.94 µM; in the test with MCF7 breast it was 3 µM; in the test with SK-MEL-5 melanoma, 3.15 µM. Further, the TGI was determined as 3.5 µM in the test with PC-3 prostate and 3.4 µM in the test with RPMI-8226 leukemia.
As to `C=CC[C@H](N=C(SC)SC)C(=O)N1C(=O)N(C)[C@@H](C)[C@H]1c1ccccc1`, the TGI in the test with SF-539 CNS, in the test on NCI-H226 lung, in the test on CAKI-1 renal, with K-562 leukemia, with DU-145 prostate and in the test on MCF7 breast was above 100 µM in each case. For the same compound, the TGI in the test with SK-MEL-5 melanoma and in the test on PC-3 prostate was above 100 µM throughout.
